Reference: PMC2362650, “Phase I and pharmacokinetic study of the topoisomerase II catalytic inhibitor fostriecin” (British Journal of Cancer, 1999)
Read-outs that look alike come from different tables or passages of the source.

What was measured:
GLC4/VM20x = assay: Microtiterwell tetrazolium growth-inhibition assay, medium with 40% pooled human plasma; assay type: cell-based; conditions: GLC4, 96 h; 4 days; medium with 40% human plasma; 95% CI 5.3-6.5
Text: Fostriecin (CI-920) is a topoisomerase (topo) II catalytic activity inhibitor (Boritzki et al, 1988) (Figure 1). This novel class of topo II-targeting drugs is considered of potential value for treatment of patients with tumours resistant to classic topo II poisons, including anthracyclines and podophyllotoxins (Cummings and Smyth, 1993). The nuclear enzyme topo II is essential for the regulation of DNA conformation (reviewed in Osheroff et al, 1991). Central in its action is the formation of a complex with DNA. Stabilization of this complex by topo II poisons induces DNA damage and cell death (Froelich-Ammon and Osheroff, 1995). Decreased complex formation due to decreased topo II levels is considered to be an important mechanism of tumour-resistance to topo II poisons (Beck and Danks, 1991). The topo II catalytic inhibitor fostriecin is expected to have increased activity against tumour cells with low topo II levels and this was confirmed in in vitro studies (De Jong et al, 1991). […] Drug pharmacokinetics was analysed with high performance liquid chromatography with UV-detection. […] A metabolite, most probably dephosphorylated fostriecin, was detected in plasma and urine. […]

[1] = Plasma and urine pharmacokinetics (HPLC-UV) in patients after 60-min IV infusion; assay type: in vivo, human; conditions: human; for Cmax / AUC / MRT / half-life: plasma, intravenous, day 1 course 1; for Cmax: observed value; for MRT: read-out: MRT
Text: Fostriecin (CI-920) is a topoisomerase (topo) II catalytic activity inhibitor (Boritzki et al, 1988) (Figure 1). This novel class of topo II-targeting drugs is considered of potential value for treatment of patients with tumours resistant to classic topo II poisons, including anthracyclines and podophyllotoxins (Cummings and Smyth, 1993). The nuclear enzyme topo II is essential for the regulation of DNA conformation (reviewed in Osheroff et al, 1991). Central in its action is the formation of a complex with DNA. Stabilization of this complex by topo II poisons induces DNA damage and cell death (Froelich-Ammon and Osheroff, 1995). Decreased complex formation due to decreased topo II levels is considered to be an important mechanism of tumour-resistance to topo II poisons (Beck and Danks, 1991). The topo II catalytic inhibitor fostriecin is expected to have increased activity against tumour cells with low topo II levels and this was confirmed in in vitro studies (De Jong et al, 1991). […] Because of increased toxi- city of fostriecin in dogs compared to mice, a dose below one-third of the one-tenth mouse equivalent LD10, 2 mg m-2 day-1, was chosen as starting dose in humans (Clinical Brochure Fostriecin, 1991). […] We also performed an analysis of the human pharmacokinetics of fostriecin and ex vivo experiments to investigate if the plasma drug concentrations achieved were sufficient to inhibit a tenipo- side-resistant tumour cell line. The maximum tolerated dose (MTD) of fostriecin could not be established because drug supply was stopped prematurely. However, results of this study may provide a basis for continued clinical development of this agent. PATIENTS AND METHODS Patient selection, drug administration and evaluation Patient eligibility criteria were: histologically confirmed diagnosis of a solid tumour, no longer amenable to established forms of treatment; age 18-75 years; Eastern Cooperative Oncology Group (ECOG) performance status 2; life expectancy 12 weeks; no Phase I and pharmacokinetic study of the topoisomerase II catalytic inhibitor fostriecin RS de Jong1, NH Mulder1, DRA Uges2, DTh Sleijfer1, FJP Hoppener4, HJM Groen3, PHB Willemse1, WTA van der Graaf1 and EGE de Vries1 Departments of 1Medical Oncology, 2Pharmacy and Toxicology, and 3Pulmonary Diseases, University Hospital Groningen, The Netherlands; 4EORTC New Drug Development Office, Amsterdam, The Netherlands Summary We conducted a phase I and pharmacokinetic study of the topoisomerase II catalytic inhibitor fostriecin. Fostriecin was administered intravenously over 60 min on days 1-5 at 4-week intervals. Dose was escalated from 2 mg m-2 day-1 to 20 mg m-2 day-1 in 20 patients. Drug pharmacokinetics was analysed with high performance liquid chromatography with UV-detection. Plasma collected during drug administration was tested in vitro for growth inhibition of a teniposide-resistant small-cell lung cancer (SCLC) cell line. The predominant toxicities were elevated liver transaminases (maximum common toxicity criteria (CTC) grade 4) and serum creatinine (maximum CTC grade 2). […] Duration of elevated alanine-amino transferase (ALT) was dose-limiting in one patient at 20 mg m-2. Other frequent toxicities were grade 1-2 nausea/vomiting, fever and mild fatigue. […] A metabolite, most probably dephosphorylated fostriecin, was detected in plasma and urine. […] However, further escalation seems possible and is warranted to achieve potentially effective drug levels. Fostriecin has a short plasma half-life and longer duration of infusion should be considered. […]

[2] = 2 mg, patient no. 1, 2 mg m-2, one-compartment model
[3] = 2 mg, patient no. 3, 2 mg m-2, one-compartment model
[4] = 2 mg, patient no. 4, 2 mg m-2, one-compartment model
[5] = 4 mg, patient no. 5, 4 mg m-2, one-compartment model
[6] = 4 mg, patient no. 6, 4 mg m-2, one-compartment model
[7] = 4 mg, patient no. 7, 4 mg m-2, two-compartment model
[8] = 6.6 mg, patient no. 11, 6.6 mg m-2, two-compartment model
[9] = 6.6 mg, patient no. 12, 6.6 mg m-2, two-compartment model
[10] = 10 mg, patient no. 13, 10 mg m-2, two-compartment model
[11] = 10 mg, patient no. 15, 10 mg m-2, two-compartment model
[12] = 12.2 mg, patient no. 16, 12.2 mg m-2, two-compartment model

## C[C@@](O)(/C=C/[C@H]1CC=CC(=O)O1)[C@@H](C[C@@H](O)\C=C/C=C\C=C\CO)OP(=O)(O)O [fostriecin]
GLC4/VM20x
  IC50: 5.9 µM
[1]; in vivo
  number of patients with fostriecin detectable in plasma more than 7 h after infusion: one
[1]; 2 mg, patient no. 1, 2 mg m-2
  Cmax: 495 ng/mL
[1]; [2]
  AUC: 739 ng·h/mL
  MRT: 51.6 min
[1]; 2 mg, patient no. 1, 2 mg m-2, one-compartment model, read-out: t1/2 (converted)
  half-life: 36 min
[1]; 2 mg, patient no. 3, 2 mg m-2
  Cmax: 597 ng/mL
[1]; [3]
  AUC: 810 ng·h/mL
  MRT: 46.2 min
[1]; 2 mg, patient no. 3, 2 mg m-2, one-compartment model, read-out: t1/2 (converted)
  half-life: 32.4 min
[1]; 2 mg, patient no. 4, 2 mg m-2
  Cmax: 371 ng/mL
[1]; [4]
  AUC: 468 ng·h/mL
  MRT: 30.6 min
[1]; 2 mg, patient no. 4, 2 mg m-2, one-compartment model, read-out: t1/2 (converted)
  half-life: 21 min
[1]; 4 mg, patient no. 5, 4 mg m-2
  Cmax: 1160 ng/mL
[1]; [5]
  AUC: 1360 ng·h/mL
  MRT: 43.2 min
[1]; 4 mg, patient no. 5, 4 mg m-2, one-compartment model, read-out: t1/2 (converted)
  half-life: 30 min
[1]; 4 mg, patient no. 6, 4 mg m-2
  Cmax: 956 ng/mL
[1]; [6]
  AUC: 1170 ng·h/mL
  MRT: 40.2 min
[1]; 4 mg, patient no. 6, 4 mg m-2, one-compartment model, read-out: t1/2 (converted)
  half-life: 27.6 min
[1]; 4 mg, patient no. 7, 4 mg m-2
  Cmax: 940 ng/mL
[1]; [7]
  AUC: 1490 ng·h/mL
  MRT: 116 min
[1]; 4 mg, patient no. 7, 4 mg m-2, two-compartment model, read-out: t1/2 (initial) (converted)
  half-life: 15.6 min
[1]; 4 mg, patient no. 7, 4 mg m-2, two-compartment model, read-out: t1/2 (terminal) (converted)
  half-life: 122 min
[1]; 6.6 mg, patient no. 11, 6.6 mg m-2
  Cmax: 1400 ng/mL
[1]; [8]
  AUC: 1650 ng·h/mL
  MRT: 26.4 min
[1]; 6.6 mg, patient no. 11, 6.6 mg m-2, two-compartment model, read-out: t1/2 (initial) (converted)
  half-life: 5.4 min
[1]; 6.6 mg, patient no. 11, 6.6 mg m-2, two-compartment model, read-out: t1/2 (terminal) (converted)
  half-life: 28.2 min
[1]; 6.6 mg, patient no. 12, 6.6 mg m-2
  Cmax: 1860 ng/mL
[1]; [9]
  AUC: 2450 ng·h/mL
  MRT: 37.8 min
[1]; 6.6 mg, patient no. 12, 6.6 mg m-2, two-compartment model, read-out: t1/2 (initial) (converted)
  half-life: 15 min
[1]; 6.6 mg, patient no. 12, 6.6 mg m-2, two-compartment model, read-out: t1/2 (terminal) (converted)
  half-life: 73.2 min
[1]; 10 mg, patient no. 13, 10 mg m-2
  Cmax: 2240 ng/mL
[1]; [10]
  AUC: 3350 ng·h/mL
  MRT: 55.2 min
[1]; 10 mg, patient no. 13, 10 mg m-2, two-compartment model, read-out: t1/2 (initial) (converted)
  half-life: 100 min
[1]; 10 mg, patient no. 13, 10 mg m-2, two-compartment model, read-out: t1/2 (terminal) (converted)
  half-life: 55.8 min
[1]; 10 mg, patient no. 15, 10 mg m-2
  Cmax: 2450 ng/mL
[1]; [11]
  AUC: 3770 ng·h/mL
  MRT: 60.6 min
[1]; 10 mg, patient no. 15, 10 mg m-2, two-compartment model, read-out: t1/2 (initial) (converted)
  half-life: 18 min
[1]; 10 mg, patient no. 15, 10 mg m-2, two-compartment model, read-out: t1/2 (terminal) (converted)
  half-life: 83.4 min
[1]; 12.2 mg, patient no. 16, 12.2 mg m-2
  Cmax: 3200 ng/mL
[1]; [12]
  AUC: 4230 ng·h/mL
  MRT: 56.4 min
[1]; 12.2 mg, patient no. 16, 12.2 mg m-2, two-compartment model, read-out: t1/2 (initial) (converted)
  half-life: 13.2 min
